Source: ChEMBL document CHEMBL1201861, “Genomics of Drug Sensitity in Cancer screening data, Wellcome Trust Sanger Institute”

Assays:
Experiment in all cases: cells
[1] = system: COLO-829; format: functional, cell-based, Homo sapiens; conditions: Homo sapiens, COLO-829
Description: SANGER: Inhibition of human COLO-829 cell growth in a cell viability assay.

[2] = system: CP50-MEL-B; format: functional, cell-based, Homo sapiens; conditions: Homo sapiens, CP50-MEL-B;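 also: growth inhibition of the human cell line, measured with a cell viability read-out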
Description: SANGER: Inhibition of human CP50-MEL-B cell growth in a cell viability assay.

[3] = system: CTV-1; format: functional, cell-based; conditions: Homo sapiens;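 also: growth inhibition of the cell line, read out with a cell viability assay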
Description: SANGER: Inhibition of human CTV-1 cell growth in a cell viability assay.

[4] = system: D-336MG; format: functional, cell-based, Homo sapiens; conditions: Homo sapiens, D-336MG
Description: SANGER: Inhibition of human D-336MG cell growth in a cell viability assay.

[5] = system: D-502MG; format: functional, cell-based, Homo sapiens; conditions: Homo sapiens, D-502MG
Description: SANGER: Inhibition of human D-502MG cell growth in a cell viability assay.

[6] = system: D-542MG; format: functional, cell-based, Homo sapiens; conditions: Homo sapiens, D-542MG
Description: SANGER: Inhibition of human D-542MG cell growth in a cell viability assay.

[7] = system: DMS-79; format: functional, cell-based; conditions: Homo sapiens;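 also: growth inhibition measured with a cell viability assay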
Description: SANGER: Inhibition of human DMS-79 cell growth in a cell viability assay.

[8] = system: DU-4475; format: functional, cell-based; conditions: Homo sapiens
Description: SANGER: Inhibition of human DU-4475 cell growth in a cell viability assay.

[9] = system: EW-16; format: functional, cell-based, Homo sapiens; conditions: Homo sapiens, EW-16;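 also: growth inhibition of human EW-16 cells, read out as cell viability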
Description: SANGER: Inhibition of human EW-16 cell growth in a cell viability assay.

[10] = system: GI-ME-N; format: functional, cell-based, Homo sapiens; conditions: Homo sapiens, GI-ME-N;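 also: growth inhibition of human GI-ME-N cells, read out with a cell viability assay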
Description: SANGER: Inhibition of human GI-ME-N cell growth in a cell viability assay.

[11] = system: GOTO; format: functional, cell-based, Homo sapiens; conditions: Homo sapiens, GOTO;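 also: growth inhibition of GOTO cells, read out by a cell viability assay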
Description: SANGER: Inhibition of human GOTO cell growth in a cell viability assay.

[12] = system: HCC1395; format: functional, cell-based, Homo sapiens; conditions: Homo sapiens, HCC1395;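 also: growth inhibition of HCC1395 cells, read out by a cell viability assay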
Description: SANGER: Inhibition of human HCC1395 cell growth in a cell viability assay.

[13] = system: HLE; format: functional, cell-based, Homo sapiens; conditions: Homo sapiens, HLE;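 also: growth inhibition of human HLE cells, read out by a cell viability assay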
Description: SANGER: Inhibition of human HLE cell growth in a cell viability assay.

[14] = system: HOP-92; format: functional, cell-based, Homo sapiens; conditions: Homo sapiens, HOP-92;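 also: cell viability readout, with IC50 reflecting inhibition of HOP-92 cell growth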
Description: SANGER: Inhibition of human HOP-92 cell growth in a cell viability assay.

[15] = system: HSC-3; format: functional, cell-based, Homo sapiens; conditions: Homo sapiens, HSC-3
Description: SANGER: Inhibition of human HSC-3 cell growth in a cell viability assay.

[16] = system: HT-1376; format: functional, cell-based, Homo sapiens; conditions: Homo sapiens, HT-1376
Description: SANGER: Inhibition of human HT-1376 cell growth in a cell viability assay.

[17] = system: HTC-C3; format: functional, cell-based, Homo sapiens; conditions: Homo sapiens, HTC-C3;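 also: inhibition of cell growth, read out with a cell viability assay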
Description: SANGER: Inhibition of human HTC-C3 cell growth in a cell viability assay.

[18] = system: JVM-2; format: functional, cell-based; conditions: Homo sapiens;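 also: growth inhibition of JVM-2 cells determined by a cell viability assay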
Description: SANGER: Inhibition of human JVM-2 cell growth in a cell viability assay.

[19] = system: K562; format: functional, cell-based; conditions: Homo sapiens
Description: SANGER: Inhibition of human K-562 cell growth in a cell viability assay.

[20] = system: KNS-81-FD; format: functional, cell-based, Homo sapiens; conditions: Homo sapiens, KNS-81-FD;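 also: growth inhibition of KNS-81-FD cells, read out with a cell viability assay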
Description: SANGER: Inhibition of human KNS-81-FD cell growth in a cell viability assay.

[21] = system: KYSE-140; format: functional, cell-based, Homo sapiens; conditions: Homo sapiens, KYSE-140;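 also: cell viability assay measuring growth inhibition in human KYSE-140 cells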
Description: SANGER: Inhibition of human KYSE-140 cell growth in a cell viability assay.

[22] = system: KYSE-270; format: functional, cell-based, Homo sapiens; conditions: Homo sapiens, KYSE-270;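 also: cell growth inhibition measured with a viability assay in the human KYSE-270 line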
Description: SANGER: Inhibition of human KYSE-270 cell growth in a cell viability assay.

[23] = system: LB1047-RCC; format: functional, cell-based, Homo sapiens; conditions: Homo sapiens, LB1047-RCC;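 also: inhibition of cell growth, determined with a cell viability assay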
Description: SANGER: Inhibition of human LB1047-RCC cell growth in a cell viability assay.

[24] = system: MDA-MB-175-VII; format: functional, cell-based, Homo sapiens; conditions: Homo sapiens, MDA-MB-175-VII
[25] = system: ME-180; format: functional, cell-based; conditions: Homo sapiens;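 also: cell viability assay measuring growth inhibition of ME-180 cells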
Description: SANGER: Inhibition of human ME-180 cell growth in a cell viability assay.

[26] = system: MHH-NB-11; format: functional, cell-based, Homo sapiens; conditions: Homo sapiens, MHH-NB-11;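 also: growth inhibition of human MHH-NB-11 cells, read out by a cell viability assay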
Description: SANGER: Inhibition of human MHH-NB-11 cell growth in a cell viability assay.

[27] = system: MIA PaCa-2; format: functional, cell-based, Homo sapiens; conditions: Homo sapiens, MIA PaCa-2;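 also: growth inhibition of MIA PaCa-2 cells, read out with a cell viability assay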
Description: SANGER: Inhibition of human MIA-PaCa-2 cell growth in a cell viability assay.

[28] = system: MKN-45; format: functional, cell-based, Homo sapiens; conditions: Homo sapiens, MKN-45;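 also: growth inhibition of human MKN-45 cells, measured with a cell viability assay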
Description: SANGER: Inhibition of human MKN45 cell growth in a cell viability assay.

[29] = system: NB13; format: functional, cell-based, Homo sapiens; conditions: Homo sapiens, NB13;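 also: cell viability readout measuring growth inhibition of human NB13 cells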
Description: SANGER: Inhibition of human NB13 cell growth in a cell viability assay.

[30] = system: NCI-H1563; format: functional, cell-based, Homo sapiens; conditions: Homo sapiens, NCI-H1563;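 also: growth inhibition of human NCI-H1563 cells, read out with a cell viability assay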
Description: SANGER: Inhibition of human NCI-H1563 cell growth in a cell viability assay.

[31] = system: NCI-H1792; format: functional, cell-based, Homo sapiens; conditions: Homo sapiens, NCI-H1792;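 also: growth inhibition of human NCI-H1792 cells, read out as cell viability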
Description: SANGER: Inhibition of human NCI-H1792 cell growth in a cell viability assay.

[32] = system: SNU-5; format: functional, cell-based; conditions: Homo sapiens;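 also: cell viability readout used to measure growth inhibition in human NCI-SNU-5 cells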
Description: SANGER: Inhibition of human NCI-SNU-5 cell growth in a cell viability assay.

[33] = system: NMC-G1; format: functional, cell-based, Homo sapiens; conditions: Homo sapiens, NMC-G1;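 also: growth inhibition of the NMC-G1 cell line, measured with a cell viability read-out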
Description: SANGER: Inhibition of human NMC-G1 cell growth in a cell viability assay.

[34] = system: OE33; format: functional, cell-based, Homo sapiens; conditions: Homo sapiens, OE33;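 also: growth inhibition of human OE33 cells, measured by a cell viability assay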
Description: SANGER: Inhibition of human OE33 cell growth in a cell viability assay.

[35] = system: PANC-03-27; format: functional, cell-based, Homo sapiens; conditions: Homo sapiens, PANC-03-27
Description: SANGER: Inhibition of human PANC-03-27 cell growth in a cell viability assay.

[36] = system: PANC-08-13; format: functional, cell-based, Homo sapiens; conditions: Homo sapiens, PANC-08-13;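 also: cell growth inhibition, measured with a cell viability assay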
Description: SANGER: Inhibition of human PANC-08-13 cell growth in a cell viability assay.

[37] = system: RH-1; format: functional, cell-based, Homo sapiens; conditions: Homo sapiens, RH-1;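 also: growth inhibition of human RH-1 cells, read out with a cell viability assay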
Description: SANGER: Inhibition of human RH-1 cell growth in a cell viability assay.

[38] = system: RXF 393; format: functional, cell-based; conditions: Homo sapiens;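 also: growth inhibition of human RXF 393 cells, read out with a cell viability assay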
Description: SANGER: Inhibition of human RXF393 cell growth in a cell viability assay.

[39] = system: S-117; format: functional, cell-based, Homo sapiens; conditions: Homo sapiens, S-117
Description: SANGER: Inhibition of human S-117 cell growth in a cell viability assay.

[40] = system: SK-MEL-28; format: functional, cell-based; conditions: Homo sapiens;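 also: growth inhibition of human SK-MEL-28 cells, read out with a cell viability assay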
Description: SANGER: Inhibition of human SK-MEL-28 cell growth in a cell viability assay.

[41] = system: SNU-C2B; format: functional, cell-based, Homo sapiens; conditions: Homo sapiens, SNU-C2B;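 also: cell viability readout used to measure compound-driven suppression of SNU-C2B cell proliferation, IC50 marking half-maximal growth inhibition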
Description: SANGER: Inhibition of human SNU-C2B cell growth in a cell viability assay.

[42] = system: SW626; format: functional, cell-based, Homo sapiens; conditions: Homo sapiens, SW626;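 also: growth inhibition of SW626 cells, measured with a cell viability assay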
Description: SANGER: Inhibition of human SW626 cell growth in a cell viability assay.

[43] = system: 786-0; format: functional, cell-based, Homo sapiens; conditions: Homo sapiens
Description: SANGER: Inhibition of human 786-0 cell growth in a cell viability assay.

[44] = system: Becker; format: functional, cell-based, Homo sapiens; conditions: Homo sapiens, Becker;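 also: growth inhibition of Becker cells, read out with a cell viability assay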
Description: SANGER: Inhibition of human Becker cell growth in a cell viability assay.

[45] = system: C2BBe1; format: functional, cell-based, Homo sapiens; conditions: Homo sapiens, C2BBe1;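 also: growth inhibition of C2BBe1 cells, read out through a viability assay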
Description: SANGER: Inhibition of human C2BBe1 cell growth in a cell viability assay.

[46] = system: CAL-72; format: functional, cell-based, Homo sapiens; conditions: Homo sapiens, CAL-72;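 also: cell viability assay measuring inhibition of proliferation in the CAL-72 cell line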
Description: SANGER: Inhibition of human CAL-72 cell growth in a cell viability assay.

[47] = system: TE-11; format: functional, cell-based, Homo sapiens; conditions: Homo sapiens, TE-11;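 also: growth inhibition of human TE-11 cells, read out by a cell viability assay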
Description: SANGER: Inhibition of human TE-11 cell growth in a cell viability assay.

[48] = system: TGBC1TKB; format: functional, cell-based, Homo sapiens; conditions: Homo sapiens, TGBC1TKB;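 also: growth inhibition of TGBC1TKB cells, read out by a cell viability assay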
Description: SANGER: Inhibition of human TGBC1TKB cell growth in a cell viability assay.

[49] = system: TYK-nu; format: functional, cell-based, Homo sapiens; conditions: Homo sapiens, TYK-nu;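 also: growth inhibition of human TYK-nu cells, read out by a cell viability assay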
Description: SANGER: Inhibition of human TYK-nu cell growth in a cell viability assay.

[50] = system: UACC-62; format: functional, cell-based, Homo sapiens; conditions: Homo sapiens, UACC-62;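 also: growth inhibition of human UACC-62 cells, read out by a cell viability assay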
Description: SANGER: Inhibition of human UACC-62 cell growth in a cell viability assay.

COc1cc([C@@H]2c3cc4c(cc3[C@@H](O[C@@H]3O[C@@H]5CO[C@@H](C)O[C@H]5[C@H](O)[C@H]3O)[C@H]3COC(=O)[C@H]23)OCO4)cc(OC)c1O [ETOPOSIDE]
IC50 [1]: 1.77 µM | IC50 [2]: > 16 µM | IC50 [3]: 0.41 µM | IC50 [4]: > 16 µM | IC50 [5]: > 16 µM | IC50 [6]: > 16 µM | IC50 [7]: > 16 µM | IC50 [8]: 0.0962 µM | IC50 [9]: 0.0215 µM | IC50 [10]: 9.83 µM | IC50 [11]: 6.38 µM | IC50 [12]: > 16 µM | IC50 [13]: 0.534 µM | IC50 [14]: 5.02 µM | IC50 [15]: 1.44 µM | IC50 [16]: 5.82 µM | IC50 [17]: > 16 µM | IC50 [18]: > 16 µM | IC50 [19]: > 16 µM | IC50 [20]: > 16 µM | IC50 [21]: 4.92 µM | IC50 [22]: 0.252 µM | IC50 [23]: 2.14 µM | IC50 [24]: > 16 µM | IC50 [25]: 0.824 µM | IC50 [26]: 0.524 µM | IC50 [27]: 2.66 µM | IC50 [28]: 1.87 µM | IC50 [29]: 2.76 µM | IC50 [30]: 7.07 µM | IC50 [31]: > 16 µM | IC50 [32]: 7.92 µM | IC50 [33]: 3.32 µM | IC50 [34]: 5.12 µM | IC50 [35]: 1.64 µM | IC50 [36]: > 16 µM | IC50 [37]: 0.0178 µM | IC50 [38]: > 16 µM | IC50 [39]: > 16 µM | IC50 [40]: > 16 µM | IC50 [41]: > 16 µM | IC50 [42]: 8.9 µM | IC50 [43]: 0.492 µM | IC50 [44]: 11.8 µM | IC50 [45]: > 16 µM | IC50 [46]: > 16 µM | IC50 [47]: 7.46 µM | IC50 [48]: > 16 µM | IC50 [49]: 2.41 µM | IC50 [50]: 2.92 µM

Cc1cnc(-c2cnc(NCCNc3ccc(C#N)cn3)nc2-c2ccc(Cl)cc2Cl)[nH]1 [LADUVIGLUSIB]
IC50 [1]: > 2.56 µM | IC50 [2]: > 2.56 µM | IC50 [3]: > 2.56 µM | IC50 [4]: 0.846 µM | IC50 [5]: > 2.56 µM | IC50 [6]: > 2.56 µM | IC50 [7]: > 2.56 µM | IC50 [8]: > 2.56 µM | IC50 [9]: > 2.56 µM | IC50 [10]: > 2.56 µM | IC50 [11]: > 2.56 µM | IC50 [12]: 1.78 µM | IC50 [13]: > 2.56 µM | IC50 [14]: > 2.56 µM | IC50 [15]: > 2.56 µM | IC50 [16]: > 2.56 µM | IC50 [17]: > 2.56 µM | IC50 [18]: > 2.56 µM | IC50 [19]: > 2.56 µM | IC50 [20]: > 2.56 µM | IC50 [21]: > 2.56 µM | IC50 [22]: > 2.56 µM | IC50 [23]: > 2.56 µM | IC50 [24]: > 2.56 µM | IC50 [25]: > 2.56 µM | IC50 [26]: > 2.56 µM | IC50 [27]: 1.76 µM | IC50 [28]: > 2.56 µM | IC50 [29]: > 2.56 µM | IC50 [30]: > 2.56 µM | IC50 [31]: > 2.56 µM | IC50 [32]: > 2.56 µM | IC50 [33]: > 2.56 µM | IC50 [34]: > 2.56 µM | IC50 [35]: > 2.56 µM | IC50 [36]: > 2.56 µM | IC50 [37]: > 2.56 µM | IC50 [38]: > 2.56 µM | IC50 [39]: 0.921 µM | IC50 [40]: > 2.56 µM | IC50 [41]: > 2.56 µM | IC50 [42]: > 2.56 µM | IC50 [43]: > 2.56 µM | IC50 [44]: > 2.56 µM | IC50 [45]: > 2.56 µM | IC50 [46]: > 2.56 µM | IC50 [47]: > 2.56 µM | IC50 [48]: > 2.56 µM | IC50 [49]: 1.08 µM | IC50 [50]: > 2.56 µM
